What was measured:
[1] = GI S9 stability, dog, Example Y; type: in vitro ADME; settings: dog intestinal S9, 1.0 mg/mL protein, 2 μM compound, pH 7.4; for half-life at 2 μM: pooled intestinal S9 fractions, read-out: GIS9 DOG T½ (per Ex. Y)
Description: (§1) Example Y: GI S9 Stability Data
(§2) Stock solutions of test compounds in dimethyl sulfoxide (DMSO) having a final concentration of 10 mM were prepared and used in all experiments. Sekisui XenoTech (Kansas City, KS) provided pooled intestinal S9 fractions. All other chemicals were purchased from Sigma-Aldrich (St. Louis, MO) or VWR (West Chester, PA). Internal Standard/Quench (IS/Q) used to stop reactions was 100 nM labetalol in (by volume) methanol (10%) and acetonitrile (90%).
(§3) Stability in Intestinal S9 Fractions: Duplicate aliquots of test compound or positive control substrate were added to S9 stock diluted with phosphate buffered saline (137 mM NaCl, 2.7 mM KCl, 10 mM phosphate buffer), pH 7.4, to obtain a protein concentration of 1.0 mg/mL. The metabolic reactions were initiated by the addition of the substrates to the S9 reaction mixture to a final concentration of 2 μM. At 0, 10, 20, 30, 60 and 120 min, 25 μL aliquots of the reaction mixture were transferred to plates containing 225 μl of IS/Q solution. After quenching, the plates were centrifuged at 3000×g for 30 minutes. 150 μL aliquots of each supernatant were dried down then reconstituted with 300 μL water. Aliquots (10 μL) of the prepared samples were analyzed on a Thermo Q-Exactive mass spectrometer as described below.
(§4) Liquid Chromatography—Mass Spectrometry: Quantification of test compounds and control substrate was performed by analyte/internal standard peak area ratio (PAR) values measured on a Thermo Q-Exactive mass spectrometer coupled to a Dionex UltiMate 3000 HPLC with a Leap Technologies HTC PAL autosampler. The column used for analysis was a Waters Acquity BEH C18 (1.7 μm particle size, 2.1×50 mm). Mobile phase A consisted of 0.1% (v/v) formic acid in water. Mobile phase B consisted of 0.1% (v/v) formic acid in acetonitrile. Elution of analytes was achieved by a series of linear gradients varying the proportions of A and B. The mass spectrometer was calibrated on a weekly basis and mass tolerance of 5 ppm was used.
(§5) Metabolic stabilities in S9 fractions were determined by measuring the rates of disappearance of test compound and positive control substrate.
(§6) Data (% of substrate remaining) were plotted on a semi-log scale and fitted using an exponential decline model:
(§7) Ct=C0×e^−ln2/T1/2×t • Where Ct—% of substrate remaining at time=t; C0—% of substrate remaining at time=0; t—time; T1/2—half-life. • The Half-life (T1/2) is determined by the following equation: […]
(§8) Assuming a first-order reaction, the slope (k) is extrapolated from the aforementioned plotted data.

[2] = GI S9 stability, cyno, Example Y; type: in vitro ADME; settings: cynomolgus monkey, pooled intestinal S9 fractions; cyno intestinal S9, 1.0 mg/mL protein, 2 μM compound, pH 7.4; read-out: GIS9 Cyno T½ (per Ex. Y)
Description: as §1, §2, §3, §4, §5, §6, §7, §8

| SMILES | half-life at 2 μM [1] | half-life at 2 μM [2] | GIS9 DOG T½ (per Ex. Y) [1] |
| --- | --- | --- | --- |
| N#C[C@]1(COC(=O)OC2CCCC2)O[C@@H](c2ccc3c(N)ncnn23)[C@H](O)[C@@H]1O [Compound 1, ((2R,3S,4R,5S)-5-(4-aminopyrrolo[2,1-f][1,2,4]triazin-7-yl)-2-cyano-3,4-dihydroxytetrahydrofuran-2-yl)methyl cyclopentyl carbonate] | 4.27 h | 0.183 h | – |
| CC(C)(C)COC(=O)OC[C@@]1(C#N)O[C@@H](c2ccc3c(N)ncnn23)[C@H](O)[C@@H]1O [Compound 2, ((2R,3S,4R,5S)-5-(4-aminopyrrolo[2,1-f][1,2,4]triazin-7-yl)-2-cyano-3,4-dihydroxytetrahydrofuran-2-yl)methyl neopentyl carbonate] | 2.7 h | 0.0667 h | – |
| CC[C@H](C)OC(=O)OC[C@@]1(C#N)O[C@@H](c2ccc3c(N)ncnn23)[C@H](O)[C@@H]1O [Compound 4, ((2R,3S,4R,5S)-5-(4-aminopyrrolo[2,1-f][1,2,4]triazin-7-yl)-2-cyano-3,4-dihydroxytetrahydrofuran-2-yl)methyl ((S)-sec-butyl) carbonate] | 7.7 h | 0.367 h | – |
| COC(=O)OC[C@@]1(C#N)O[C@@H](c2ccc3c(N)ncnn23)[C@H](O)[C@@H]1O [Compound 6, ((2R,3S,4R,5S)-5-(4-aminopyrrolo[2,1-f][1,2,4]triazin-7-yl)-2-cyano-3,4-dihydroxytetrahydrofuran-2-yl)methyl methyl carbonate] | – | 0.633 h | 13.2 h |
| CC(C)COC(=O)OC[C@@]1(C#N)O[C@@H](c2ccc3c(N)ncnn23)[C@H](O)[C@@H]1O [Compound 8, ((2R,3S,4R,5S)-5-(4-aminopyrrolo[2,1-f][1,2,4]triazin-7-yl)-2-cyano-3,4-dihydroxytetrahydrofuran-2-yl)methyl isobutyl carbonate] | 5.18 h | 0.133 h | – |
| CCCOC(=O)OC[C@@]1(C#N)O[C@@H](c2ccc3c(N)ncnn23)[C@H](O)[C@@H]1O [Compound 9, ((2R,3S,4R,5S)-5-(4-aminopyrrolo[2,1-f][1,2,4]triazin-7-yl)-2-cyano-3,4-dihydroxytetrahydrofuran-2-yl)methyl propyl carbonate] | 2.6 h | 0.317 h | – |
| CC[C@@H](C)OC(=O)OC[C@@]1(C#N)O[C@@H](c2ccc3c(N)ncnn23)[C@H](O)[C@@H]1O [Compound 10, ((2R,3S,4R,5S)-5-(4-aminopyrrolo[2,1-f][1,2,4]triazin-7-yl)-2-cyano-3,4-dihydroxytetrahydrofuran-2-yl)methyl ((R)-sec-butyl) carbonate] | – | 0.15 h | 13.2 h |
| CC(C)OC(=O)OC[C@@]1(C#N)O[C@@H](c2ccc3c(N)ncnn23)[C@H](O)[C@@H]1O [Compound 11, ((2R,3S,4R,5S)-5-(4-aminopyrrolo[2,1-f][1,2,4]triazin-7-yl)-2-cyano-3,4-dihydroxytetrahydrofuran-2-yl)methyl isopropyl carbonate] | – | 0.583 h | 13.2 h |
| N#C[C@]1(COC(=O)OC2CCOCC2)O[C@@H](c2ccc3c(N)ncnn23)[C@H](O)[C@@H]1O [Compound 12, ((2R,3S,4R,5S)-5-(4-aminopyrrolo[2,1-f][1,2,4]triazin-7-yl)-2-cyano-3,4-dihydroxytetrahydrofuran-2-yl)methyl (tetrahydro-2H-pyran-4-yl) carbonate] | – | 4.57 h | – |
| CC(C)(C)OC(=O)OC[C@@]1(C#N)O[C@@H](c2ccc3c(N)ncnn23)[C@H](O)[C@@H]1O [Compound 13, ((2R,3S,4R,5S)-5-(4-aminopyrrolo[2,1-f][1,2,4]triazin-7-yl)-2-cyano-3,4-dihydroxytetrahydrofuran-2-yl)methyl tert-butyl carbonate] | 1.6 h | 1.2 h | – |
| CCC(CC)OC(=O)OC[C@@]1(C#N)O[C@@H](c2ccc3c(N)ncnn23)[C@H](O)[C@@H]1O [Compound 14, ((2R,3S,4R,5S)-5-(4-aminopyrrolo[2,1-f][1,2,4]triazin-7-yl)-2-cyano-3,4-dihydroxytetrahydrofuran-2-yl)methyl pentan-3-yl carbonate] | 8.9 h | 0.133 h | – |
| CC(C)COC(=O)OC[C@@]1(C#N)O[C@@H](c2ccc3c(N)ncnn23)[C@@H]2OC(=O)O[C@@H]21 [Compound 15, ((3aS,4R,6S,6aS)-6-(4-aminopyrrolo[2,1-f][1,2,4]triazin-7-yl)-4-cyano-2-oxotetrahydrofuro[3,4-d][1,3]dioxol-4-yl)methyl isobutyl carbonate] | 0.2 h | 0.0333 h | – |
| N#C[C@]1(COC(=O)O[C@@H]2CCOC2)O[C@@H](c2ccc3c(N)ncnn23)[C@H](O)[C@@H]1O [Compound 24, ((2R,3S,4R,5S)-5-(4-aminopyrrolo[2,1-f][1,2,4]triazin-7-yl)-2-cyano-3,4-dihydroxytetrahydrofuran-2-yl)methyl ((R)-tetrahydrofuran-3-yl) carbonate] | – | 2.45 h | 13.2 h |
| N#C[C@]1(COC(=O)O[C@H]2CCOC2)O[C@@H](c2ccc3c(N)ncnn23)[C@H](O)[C@@H]1O [Compound 33, ((2R,3S,4R,5S)-5-(4-aminopyrrolo[2,1-f][1,2,4]triazin-7-yl)-2-cyano-3,4-dihydroxytetrahydrofuran-2-yl)methyl ((S)-tetrahydrofuran-3-yl) carbonate] | – | 2.72 h | 13.2 h |

From patent US20230382940A1, “ANTIVIRAL COMPOUNDS AND METHODS OF MAKING AND USING THE SAME” (Gilead Sciences, Inc., priority 2022, published 2023)
